In patent US20240209376A1, “Specific Oligonucleotide-Programmed Readthrough of Nonsense Codons” (UNIVERSITY OF MASSACHUSETTS, priority 2021, published 2024):
Entries after “also recorded” stand apart in the source; their conditions may differ.

Experiments:
[1] = test system: CAN1-luc expression construct premature stop codon; assay: CAN1-luc expression construct readthrough (rabbit reticulocyte lysate); type: biochemical; settings: oligo at +8 position downstream of premature stop codon
From the text: FIG. 4 illustrates one embodiment of a CAN1 arginine permease gene/luciferase expression construct (Can1-1uc). Upper panel: A schematic of the construct showing the relative position of a premature stop codon and a Can1 open reading frame and a luciferase gene with a natural terminal stop codon. Lower panel: A deoxyribonucleic acid sequence of the Can1-1uc construct with a TGA premature stop codon and a deoxyribonucleic acid oligo hybridized to the Can1-1uc construct at the +8 nucleotide position downstream of the premature stop codon.
FIG. 5 presents exemplary data showing readthrough of a CAN1-1uc expression construct premature stop codon with a DNA oligo hybridized at the +8 nucleotide position downstream of the premature stop codon.
The DNA antisense oligos contemplated herein were validated using a DNA expression construct comprising a premature stop codon and a luciferase gene. The basic methodology was used a CAN1 gene expression construct encoding an arginine permease amino acid transporter protein. The CAN1 expression construct positions a […] premature stop codon at the terminus of the CAN1 open reading frame subsequently followed by a luciferase open reading frame. See, FIG. 4. The DNA antisense oligo +8(70) having the nucleic acid sequence of 5′-[…]-3′ was then positioned at the +8 nucleic acid position downstream of the first nucleotide of the premature stop codon. […]

[2] = test system: CFTR premature stop codon (G542X; UGAC, UGAG) mRNA; assay: 511-565 CFTR nanoluciferase construct readthrough (RRL assay); type: biochemical; settings: for readthrough promotion by fluoride-modified oligos: RRL assay
From the text: (§1) FIG. 6 presents one embodiment of a cystic fibrosis gene/nanoluciferase expression construct (511-565 CFTR). Upper panel: A schematic of the construct showing the relative position of a premature stop codon (UGAG or UGAC) within a cystic fibrosis open reading frame (CFTR) and a luciferase gene with a natural terminal stop codon. Lower panel: A deoxyribonucleic acid sequence of the CFTR construct with a TGA premature stop codon and a deoxyribonucleic acid oligo hybridized to the CFTR construct at the +8 nucleotide position downstream of the premature stop codon.
In one embodiment, the present invention contemplates a modified cystic fibrosis transmembrane conductance regulator (CFTR) deoxyribonucleic acid (DNA) construct. In one embodiment, the modified CFTR DNA construct comprises a CFTR open reading frame comprising a premature TGA stop codon. In one embodiment, the TGA premature stop codon is a G542X mutation. In one embodiment, the modified CFTR DNA construct further comprises a nanoluciferase gene and a natural stop codon. In one embodiment, the modified CFTR mRNA construct molecule is hybridized to a single stranded DNA antisense oligo at the +8 nucleotide position downstream of a TGA premature stop codon. In one embodiment, the DNA antisense oligo is 5′-[…]-3′. See, FIG. 6.
(§2) A 511-565 CFTR DNA expression vector construct was designed with several different codon configurations: i) a single wild type sense codon (“GGAG”) and a subsequent wild-type stop codon; ii) a premature stop codon “TGAG” comprising a G542X mutation (e.g., a strong stop codon); and iii) a premature stop codon “TGAC” comprising a G542X mutation (a weak stop codon) rendering an artificial readthrough-prone context. […] See, FIG. 7.

[3] = test system: CFTR wild type construct without premature stop codon (GGAG); assay: 511-565 CFTR nanoluciferase construct expression, wild type; type: biochemical; settings: increasing G418 concentrations
From the text: as §1
FIG. 8 presents exemplary data showing the effect of the aminoglycoside G418 on 511-565 CFTR construct expression.
as §2

[4] = test system: CFTR mRNA levels (NMD-mediator SMG1); assay: mRNA analysis by qPCR in CFF-16HBEge cell lines; type: cell-based
From the text: The example presents the results of mRNA analysis by quantitative polymerase chain reaction and (qPCR) and protein analysis by Western Blot.

[5] = cited from earlier work
[6] = experimental data; cited from earlier work

5′-GCGCCGGGCCTTTCTTTATGTTTTTGGCGT-3′ (DNA, backbone and methylation of C not given here) [+8(70), DNA antisense oligo at +8 position of CAN1-luc construct]
readthrough of premature stop codon in CAN1-luc construct [1]: increases readthrough of a premature stop codon

CN[C@@H]1[C@@H](O)[C@@H](O[C@H]2[C@H](O)[C@@H](O[C@H]3O[C@H]([C@H](C)O)[C@@H](O)[C@H](O)[C@H]3N)[C@H](N)C[C@@H]2N)OC[C@]1(C)O [G418]
premature stop codon readthrough, G418 alone ([2]; UGAG and UGAC constructs, increasing G418 concentrations): promotes premature stop codon (UGAG and UGAC) readthrough in a concentration-dependent manner; also recorded: increasing expression of premature stop codon constructs | readthrough rate at 0.5 μM and 0.1 μM G418 versus 1 μM G418 ([2]; weak (UGAC) and strong (UGAG) premature codon, +8(66) combination experiment (FIG. 9)): significantly higher readthrough rate | wild type sense codon (GGAG) construct expression, G418 alone [3]: inhibits wild type sense codon (GGAG) readthrough in a concentration-dependent manner; also recorded: decreases the expression of wild type construct

CCN(CC)S(=O)(=O)c1cc(Nc2nccc(-c3ccnc(-c4ccc(NC(=O)NC)cc4)c3)n2)ccc1Cl [SMG1i]
CFTR WT mRNA [4]: smaller increase | mRNA levels of the PTC alleles [4]: restores mRNA levels of the PTC alleles

NC[C@H]1O[C@H](O[C@H]2[C@H](O)[C@@H](O[C@H]3O[C@H](CO)[C@@H](O)[C@H](N)[C@H]3O)[C@H](N)C[C@@H]2N)[C@H](N)C[C@@H]1O [tobramycin]
rise in NAG, once daily arm less than three times daily regimen ([5]; adults and children): 33% | elimination rate, once daily versus three times daily group ([5]; once daily group mostly dosed in the evening): lower elimination rate | serum creatinine level during the course of treatment ([5]; paediatric group, single daily dose, compared with a rise with three divided doses): decreased | efficacy, single daily versus multiple daily dosing regimen ([5]; patients with CF): equal efficacy

TCCACTCAGTGTGATTCCAC^F (2'-fluoro at 20, other sugars and backbone not given here; one 2'-fluoro at 3'-terminal nucleotide) [+8(47) oligo withone 2′-fluoride modification]
readthrough promotion by fluoride-modified oligos [2]: promote readthrough in an RRL assay with improved stability and/or efficiency

U^FCCAC^FTCAG^FTGTG^FATTC^FCAC^F
readthrough promotion by fluoride-modified oligos [2]: promote readthrough in an RRL assay with improved stability and/or efficiency

gentamicin
relative toxicity among aminoglycosides [6]: more toxic than tobramycin and amikacin
